Laboratory results as given in the supplement of paper PMC11451515.

Test system: NOMO1
Experiment: cell viability relative to DMSO control; higher = less cytotoxic
Conditions: 48 h
Method in brief: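 NOMO1 or SEM cells were plated at 500 cells/well and P12-Ichikawa cells at 1000 cells/well in 1536-well plates (5 μl), after each leukemia line had been adapted for at least four passages in each medium. Pin dosing delivered library compounds in DMSO at 11 threefold concentrations, 47 μM to 0.79 nM. CellTiter-Glo One luminescence was read after 48 h at 37°C. Viability is reported as a per-plate percentage of DMSO wells, with cell-free wells as background.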

[1] = HPLM + 10% dialyzed FBS, 0.000781 µM
[2] = HPLM + 10% dialyzed FBS, 0.00234 µM
[3] = HPLM + 10% dialyzed FBS, 0.00702 µM
[4] = HPLM + 10% dialyzed FBS, 0.0211 µM
[5] = HPLM + 10% dialyzed FBS, 0.0632 µM
[6] = HPLM + 10% dialyzed FBS, 0.19 µM
[7] = HPLM + 10% dialyzed FBS, 0.569 µM
[8] = HPLM + 10% dialyzed FBS, 1.71 µM
[9] = HPLM + 10% dialyzed FBS, 5.12 µM
[10] = HPLM + 10% dialyzed FBS, 15.4 µM
[11] = HPLM + 10% dialyzed FBS, 46.1 µM
[12] = RPMI 5 mM glucose + 10% FBS, 0.000781 µM
[13] = RPMI 5 mM glucose + 10% FBS, 0.00234 µM
[14] = RPMI 5 mM glucose + 10% FBS, 0.00702 µM
[15] = RPMI 5 mM glucose + 10% FBS, 0.0211 µM
[16] = RPMI 5 mM glucose + 10% FBS, 0.0632 µM
[17] = RPMI 5 mM glucose + 10% FBS, 0.19 µM
[18] = RPMI 5 mM glucose + 10% FBS, 0.569 µM
[19] = RPMI 5 mM glucose + 10% FBS, 1.71 µM
[20] = RPMI 5 mM glucose + 10% FBS, 5.12 µM
[21] = RPMI 5 mM glucose + 10% FBS, 15.4 µM
[22] = RPMI 5 mM glucose + 10% FBS, 46.1 µM
[23] = RPMI 5 mM glucose + 10% dialyzed FBS, 0.000781 µM
[24] = RPMI 5 mM glucose + 10% dialyzed FBS, 0.00234 µM
[25] = RPMI 5 mM glucose + 10% dialyzed FBS, 0.00702 µM
[26] = RPMI 5 mM glucose + 10% dialyzed FBS, 0.0211 µM
[27] = RPMI 5 mM glucose + 10% dialyzed FBS, 0.0632 µM
[28] = RPMI 5 mM glucose + 10% dialyzed FBS, 0.19 µM
[29] = RPMI 5 mM glucose + 10% dialyzed FBS, 0.569 µM
[30] = RPMI 5 mM glucose + 10% dialyzed FBS, 1.71 µM
[31] = RPMI 5 mM glucose + 10% dialyzed FBS, 5.12 µM
[32] = RPMI 5 mM glucose + 10% dialyzed FBS, 15.4 µM
[33] = RPMI 5 mM glucose + 10% dialyzed FBS, 46.1 µM

Row | SMILES | cell viability [1] | cell viability [2] | cell viability [3] | cell viability [4] | cell viability [5] | cell viability [6] | cell viability [7] | cell viability [8] | cell viability [9] | cell viability [10] | cell viability [11] | cell viability [12] | cell viability [13] | cell viability [14] | cell viability [15] | cell viability [16] | cell viability [17] | cell viability [18] | cell viability [19] | cell viability [20] | cell viability [21] | cell viability [22] | cell viability [23] | cell viability [24] | cell viability [25] | cell viability [26] | cell viability [27] | cell viability [28] | cell viability [29] | cell viability [30] | cell viability [31] | cell viability [32] | cell viability [33]
1 | Cc1c(C(=O)c2cccc3ccccc23)c2cccc3c2n1[C@H](CN1CCOCC1)CO3 | 104% | 100% | 94.2% | 101% | 99.9% | 91% | 89.5% | 86.9% | 97.9% | 86.1% | 5.74% | 91.4% | 83.8% | 87.4% | 87.8% | 96.7% | 94.4% | 86.4% | 91% | 88.7% | 81.4% | 4.88% | 84.2% | 90% | 86.3% | 86.9% | 95.8% | 85.5% | 85.4% | 88.1% | 87.5% | 77.7% | 5.16%
2 | C[C@H](Cc1ccc(O)c(O)c1)[C@@H](C)Cc1ccc(O)c(O)c1 | 130% | 119% | 118% | 117% | 126% | 133% | 134% | 132% | 42% | 99.6% | 18.4% | 141% | 114% | 112% | 122% | 117% | 109% | 119% | 114% | 111% | 104% | 57.5% | 119% | 121% | 124% | 107% | 104% | 114% | 113% | 111% | 57% | 94.1% | 27.9%
3 | COC(=O)Nc1nc2ccc([S+]([O-])c3ccccc3)cc2[nH]1 (stereo not drawn) | 96.8% | 106% | 119% | 110% | 101% | 119% | 121% | 113% | 101% | 97.9% | 66.7% | – | – | – | – | – | – | – | – | – | – | – | 113% | 123% | 120% | 131% | 136% | 137% | 123% | 134% | 130% | 116% | 94.8%
4 | O=[S+]([O-])(NCCNC/C=C/c1ccc(Br)cc1)c1cccc2cnccc12 | 110% | 114% | 109% | 81.5% | 101% | 105% | 104% | 97.5% | 95.4% | 79.3% | 69.5% | 98.4% | 88.6% | 92.8% | 105% | 91.3% | 97.6% | 96.1% | 98.8% | 84% | 87.5% | 85.6% | 103% | 100% | 90.7% | 78.4% | 97.6% | 89.9% | 89.1% | 85.3% | 89.7% | 74.3% | 81.7%
5 | Cc1cnc(Nc2ccc(N3CCN(C)CC3)cc2)nc1Nc1cccc([S+](=O)([O-])NC(C)(C)C)c1 | 122% | 117% | 115% | 104% | 122% | 120% | 95.7% | 80.2% | 65.8% | 45.5% | 5.81% | 100% | 108% | 99.1% | 98.6% | 101% | 102% | 102% | 87.6% | 77.8% | 44.6% | 15.2% | 112% | 113% | 107% | 111% | 110% | 94.2% | 101% | 95.8% | 74.6% | 56.8% | 21.5%
6 | Oc1c(Cl)cc(Cl)c2cccnc12 | 102% | 113% | 115% | 93.6% | 97.4% | 92.6% | 113% | 91.4% | 96.2% | 111% | 81.6% | 91.7% | 69.2% | 105% | 94.3% | 92.6% | 98.4% | 116% | 90.6% | 84.8% | 91.6% | 62.6% | 93.1% | 90.8% | 108% | 97.7% | 103% | 94.3% | 121% | 101% | 101% | 91.7% | 56.5%
7 | CCOC(=O)O[C@]1(C(=O)OCCl)CC[C@H]2[C@@H]3CCC4=CC(=O)C=C[C@]4(C)[C@H]3[C@@H](O)C[C@@]21C | 101% | 95.9% | 103% | 105% | 103% | 108% | 110% | 99.3% | 95.3% | 84.3% | 82% | 98.4% | 88.2% | 96.2% | 84.2% | 82.2% | 94.6% | 85.7% | 87.5% | 87.1% | 89.3% | 95% | 88.1% | 95.1% | 93.2% | 87.4% | 91% | 100% | 88.6% | 98.2% | 75.8% | 80.2% | 93.4%
8 | Nc1nc(N)c(N=O)c(OCC2CCCCC2)n1 | 89.8% | 104% | 90.2% | 116% | 94.5% | 99% | 99.5% | 62.5% | 46.9% | 38.9% | 23.4% | 90.3% | 90.2% | 93% | 93.5% | 87.9% | 94% | 91.8% | 76.9% | 61.6% | 48% | 28.2% | 76.6% | 91.8% | 78.8% | 87.9% | 97.9% | 96.9% | 91.2% | 76.8% | 66.8% | 60.4% | 33.8%
